One data set has as its system HT-22 and SH-SY5Y cells. The note with it: concentration where viability was restored to about 75%, ref [103]; read-out: Effective concentration 50 (EC50), neuroprotection; cited from earlier work.
Data set [1] deals with Methicillin-Resistant S. aureus (MRSA). Description: MIC and MBC evaluation (broth microdilution, agar plate assay). The data set is classed as cell-based, Staphylococcus aureus. How it is done: (§1) The MIC and MBC assessment on the pathogenic bacteria and the candidate probiotic lactic acid bacteria was carried out by the broth microdilution assay (BMD) and the agar plate assay, respectively, as described in [4]. The metabolic (dehydrogenase) activity of the lactic acid bacteria was assessed as described in [4].
(§2) P. aeruginosa PAO1 ATCC 15692 was purchased from the American Type Cell Culture Collection (ATCC, Manassas, VA, USA). S. mutans DSM 20523 was bought from the German Collection of Microorganisms and Cell Cultures (DSMZ GmbH, Braunschweig, Germany). All other bacteria and strains were purchased as described in [4].
(Broth dilution looks for growth in wells or tubes with falling amounts of substance.)

Data set [2] relates to Staphylococcus aureus. The data set is described as above. Format: cell-based. To be noted: for MBC: read-out: Minimal bactericidal concentration (MBC), Staphylococcus aureus; for MBC/MIC ratio, S. aureus: bactericidal if ≤ 4, bacteriostatic if > 4. Here is the method: as §1, §2
Data set [3] relates to Enterococcus faecalis. Described as above. The data set is classed as cell-based. Here is the method:
as §1, §2

The test system of data set [4] is Enterococcus faecalis. To be noted: ref [4],[29]; cited from earlier work.
The next data set deals with CCL-1. Description: MTT assay for cytotoxicity. Format: cell-based, murine. How it is done: (§3) The MTT assay was performed according to Annex C, ISO 10993-5 [56] as in [116]. The panel of non-tumorigenic cell lines consisted of one murine (CCL-1 fibroblasts, which are recommended as a standard for cytotoxicity evaluation in Annex C of ISO 10993-5 [56]) and four human cell lines—HaCaT (immortalized epidermal keratinocytes), HGF (gingival fibroblasts), HEK-293 (embryonic cells from kidney epithelium), and HEPG2 (hepatoblastoma). Although technically a cancer cell line, HEPG2 is non-tumorigenic and retains many hepatocyte-related features in its proteome and a high degree of morphological and functional differentiation, also being a stage one hepatoblastoma.
(§4) CCL-1 was purchased from ATCC and HaCaT and HGF were bought from CLS Cell Lines Service (GmbH, Eppelheim, Germany). HEK-293 and HEPG2 were obtained from DSMZ. The cell culture medium for HaCaT and HEPG2 was Dulbecco’s Modified Eagle Medium (DMEM) with 4.5 g/L glucose (DMEM-HA). For HGF it was DMEM/F-12 (DMEM-12-A, a 1:1 mixture of DMEM and Ham’s F-12 medium). The cell medium for CCL-1 and HEK-293 was Eagle’s Minimum Essential Medium (MEM) (MEM-A). Ten percent heat-inactivated fetal bovine serum (FBS) was added to all media but to the one for the CCL-1 cells, to which 10% heat-inactivated horse serum was added. All media were supplemented with 2 mM L-glutamine and Penicillin/Streptomycin (Pen/Strep, 100×). The cell culture media, sera, and additives were from Capricorn Scientific (Düsseldorf, Germany).
(§5) GraphPad Prism software version 9 (GraphPad Software Inc., San Diego, CA, USA) was used to calculate the IC50 values from the MTT assays as in [116], as well as the MTC values, and the ELISA standard curves. The MTC values are, according to ISO 10993-5, the maximum concentration at which at least 70% of the cells are viable (nonlin fit, range).

The subject of a further data set is HaCaT. Description: MTT assay for cytotoxicity. Format: cell-based, human. Here is the method:
as §3, §4, §5
Background: Formazan colour is commonly taken as a measure of viable cells.

A further data set has as its system HEPG2. Description: MTT assay for cytotoxicity. Format: cell-based, human. How it is done: as §3, §4, §5
The next data set relates to CCL-1 cells. Kind of data set: Colony-forming unit assay. Format: cell-based, murine. The note with it: for Percentage of colonies, CCL-1: untreated control = 100%. Here is the method: (§6) The CFU was also performed according to ISO 10993-5 [56]. Briefly, the cell lines were seeded at a concentration like for the MTT assay in 6-well plates, treated with the chosen agents and left for a 48 h exposure. Then, the cells were trypsinized, and pre-calculated 20 to 100 µL from the cell suspension was added to a sterile Roswell Park Memorial Institute (RPMI) medium (RPMI-A, Capricorn Scientific), containing 20% of the respective cell culture medium for each cell line but with a final concentration of FBS and L-glutamine of 40–42% and 0.8–1.2 mM, respectively, 0.2% NaHCO3 (S6297, Merck Sigma-Aldrich, Saint Louis, MI, USA), and 0.8% methylcellulose (M0512, Merck Sigma-Aldrich) for viscosity. The viscous cell solution was vortexed for 10 s and dispensed in an equal number of cells per well in 6-well plates (1.2 mL per well) in triplicate for each concentration of treatment. HaCaT and HEK-293 were seeded at a concentration of 2500 cells per mL, CCL-1 and HEPG2—2000 cells per mL, and HGF—1000 cells per mL. The plates were incubated for 6 to 10 days, and when the colonies reached 20 to 50 cells per colony, 100 µL MTT salt solution was added to each well. After half an hour, the stained colonies were counted manually using a microscope.

Data set [5] deals with Methicillin-Resistant S. aureus (MRSA). To be noted: ref [4],[29]; cited from earlier work.
The test system of another data set is Streptococcus pyogenes. To be noted: ref [4],[29]; cited from earlier work.
The subject of data set [6] is Human gingival fibroblasts (HGF). Description: MTT assay for cytotoxicity. The data set is classed as cell-based. Here is the method: as §3, §4, §5
The test system of data set [7] is Human embryonic kidney-293 (HEK-293). Kind of data set: MTT assay for cytotoxicity. Format: cell-based. How it is done:
as §3, §4, §5

The subject of another data set is HaCaT cells. Kind of data set: Colony-forming unit assay. The data set is classed as cell-based, human. To be noted: for Colonies per well for HaCaT cells: mean of three wells; for Percentage of colonies, HaCaT: untreated control = 100%. Here is the method:
as §6

A further data set relates to HEK-293 cells. Kind of data set: Colony-forming unit assay. The data set is classed as cell-based, human. The note with it: for Percentage of colonies, HEK-293: untreated control = 100%. How it is done: as §6
For data set [8], the system named is Staphylococcus aureus. To be noted: ref [4],[29]; cited from earlier work.
The subject of data set [9] is panel of cancer cell lines. The arrangement: method as in PMID 39454890. The note with it: ref [48]; read-out: IC50 against a panel of cancer cell lines; cited from earlier work.
The subject of data set [10] is Pseudomonas aeruginosa PAO1. Description: MIC and MBC evaluation (broth microdilution, agar plate assay). The data set is classed as cell-based. To be noted: Pseudomonas aeruginosa, PAO1. How it is done:
as §1, §2

Where [11] appears, read: bactericidal if ≤ 4, bacteriostatic if > 4.

The source of these data is PMC12566971, “Polyprenylated Acylphloroglucinols from Hypericum rochelii and Hypericum olympicum—Cytotoxic Effects on Non-Tumorigenic Cell Lines and Antibacterial Potential” (Pharmaceuticals, 2025).

Converted amounts (≈) assume the structure as drawn. Read-outs that look alike come from different tables or passages of the source.

The term IC50 denotes the point on the concentration scale where inhibition reaches its midpoint. In general, MIC refers to the lowest concentration that inhibits growth of the organism. A lower MIC goes with inhibition by little substance.

In the case of `COc1ccc(C(=O)CCc2c(OC)cc(O)cc2OC)cc1` [4-hydroxy-2,6,4′-trimethoxydihydrochalcone], in the data set on HT-22 and SH-SY5Y cells, the EC50 is 1.48 µM.
Consider `CNC(C)C1CCC(N)C(OC2C(N)CC(N)C(OC3OCC(C)(O)C(NC)C3O)C2O)O1` (centres unmarked) [Gentamicin, reference compound], for which the MBC in [1] (Staphylococcus aureus, MRSA) is 2.5 µg/mL (≈ 5.23 µM); in the data set with Staphylococcus aureus [2] (Staphylococcus aureus), 1.9 µg/mL; with Enterococcus faecalis [3] (Enterococcus faecalis), 72 µg/mL (≈ 151 µM). The “MBC/MIC ratio, MRSA” value in data set [1] (setting [11]) was found to be 20. The “MBC/MIC ratio, S. aureus” value in the data set on Staphylococcus aureus [2] is 8 ^5. Further, in the data set on Enterococcus faecalis [3] (setting [11]), the “MBC/MIC ratio, E. faecalis” value is recorded as 9.
Take `CC(C)=CCC[C@]1(C)[C@@H](CC=C(C)C)C[C@]2(C)C(=O)C(CC=C(C)C)=C(O)[C@@]1(C(=O)C(C)C)C2=O` [Hyperpolyphyllirin/hyperibine J]: the “MIC on bacteria, E. faecalis” value in the data set on Enterococcus faecalis [4] is 8 µg/mL (≈ 16.6 µM). Besides, in the data set on CCL-1, the “Maximum tolerated concentration (MTC), CCL-1” value is 4.56 µg/mL. In addition, in the data set with CCL-1 (MTT assay), the “IC50, CCL-1” value amounted to 7.07 µg/mL (≈ 14.6 µM). For the same compound, the IC50 came to 14.7 µM in the data set with CCL-1 (converted to µM); 4.74 µM in the data set with HaCaT (converted to µM); 29.7 µM in the data set on HEPG2 (converted to µM); 25.7 µM in [6] (converted to µM); 1.64 µM in data set [7] (converted to µM). Further, the “Maximum tolerated concentration (MTC), HaCaT” value in the data set with HaCaT worked out at 0.75 µg/mL. Moreover, the “IC50, HaCaT” value in the data set on HaCaT (MTT assay) is 2.29 µg/mL (≈ 4.74 µM). Also, the “Maximum tolerated concentration (MTC), HEPG2” value in the data set on HEPG2 is 5.13 µg/mL. Besides, the “IC50, HEPG2” value in the data set on HEPG2 (MTT assay) is reported as 14.33 µg/mL (≈ 29.7 µM). Further, the “Colonies per well for CCL-1 cells” value in the data set with CCL-1 cells (1/2 × IC50, 48 h exposure) came to 162; in the data set on CCL-1 cells (2 × IC50, 48 h exposure), 113; with CCL-1 cells (IC50, 48 h exposure) it was 116. Further, the figures for the “Percentage of colonies, CCL-1” value in the data set on CCL-1 cells (1/2 × IC50), in the data set on CCL-1 cells (2 × IC50) and with CCL-1 cells (IC50) were 111%, 77% and 79%, respectively. Further, the “MIC on bacteria, MRSA” value in [5] is 8 µg/mL (≈ 16.6 µM). For the same compound, the “MIC on bacteria, S. pyogenes” value in the data set on Streptococcus pyogenes was 31 µg/mL (≈ 64.2 µM). Also, the “Minimal bactericidal concentration (MBC), Staphylococcus aureus” value with Staphylococcus aureus [2] came to 94 µg/mL (≈ 195 µM). The “MBC/MIC ratio, S. aureus” value in the data set with Staphylococcus aureus [2] was 47. The MBC with Staphylococcus aureus [2] was 194 µM. Further, the “Maximum tolerated concentration (MTC), HGF” value in data set [6] is 10.47 µg/mL. The “IC50, HGF” value in data set [6] (MTT assay) is on record as 12.41 µg/mL (≈ 25.7 µM). Besides, the “Maximum tolerated concentration (MTC), HEK-293” value in data set [7] came out at 0.46 µg/mL. Besides, in data set [7] (MTT assay), the “IC50, HEK-293” value is listed as 0.79 µg/mL (≈ 1.64 µM). Also, the “Colonies per well for HaCaT cells” value in the data set on HaCaT cells (1/2 × IC50, 48 h exposure) is recorded as 143; with HaCaT cells (2 × IC50, 48 h exposure) it was 58; in the data set on HaCaT cells (IC50, 48 h exposure) it was 133. For the same compound, the “Percentage of colonies, HaCaT” value with HaCaT cells (1/2 × IC50) came out at 259%; in the data set on HaCaT cells (2 × IC50) it was 105%; with HaCaT cells (IC50), 241%. Further, the “Colonies per well for HEK-293 cells” value in the data set with HEK-293 cells (1/2 × IC50, 48 h exposure) is recorded as 110; in the data set on HEK-293 cells (2 × IC50, 48 h exposure), 67; in the data set on HEK-293 cells (IC50, 48 h exposure) it was 91. Further, the figures for the “Percentage of colonies, HEK-293” value in the data set on HEK-293 cells (1/2 × IC50), with HEK-293 cells (2 × IC50) and with HEK-293 cells (IC50) were 89%, 54% and 73%, respectively. In the data set with Staphylococcus aureus [8], the “MIC on bacteria, S. aureus” value was 2 µg/mL (≈ 4.14 µM).
For the compound `O=c1c(-c2c(O)cc(O)c3c(=O)cc(-c4ccc(O)cc4)oc23)c(-c2ccc(O)cc2)oc2cc(O)cc(O)c12` [I3-II8-biapigenin], the IC50 in data set [9] was 107 to 198 µM.
Turning to `C[C@@H](O)[C@H]1C(=O)N2C(C(=O)O)=C(S[C@@H]3CN[C@H](C(=O)N(C)C)C3)[C@H](C)[C@H]12` [Meropenem, reference compound], in data set [10], the MBC came out at 6.4 µg/mL (≈ 16.7 µM) and the MIC amounted to 1.6 µg/mL (≈ 4.17 µM).
